Our source for the IC50 values is US7585859B2, “PDE4B inhibitors and uses therefor” (Plexxikon, Inc., priority 2004, dated 2009).

Where two headings read alike, the source gives them in different places.

Format in all cases: biochemical
Assay [1] addresses T1, PDE4B: The catalytic domain of human PDE4B from S152-S528 (Homo sapiens, UniProt Q07343).
T1 construct: His6 (N); thrombin cleavage site (N); made in house; host or cells: E. coli
The experiment in a line: PDE4 IC50 determination by Scintillation Proximity Assay, PDE4B. A digest of the protocol:
(§1)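 Scintillation counts reflected [^3H]AMP captured on yttrium silicate SPA beads after enzyme hydrolysed [^3H]cAMP for 30 min at 30°. PDE4B was used at 80 ng/ml and PDE4D at 4 ng/ml. IC50 values came from non-linear regression.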

In the next assay the target is T2, PDE4D (Homo sapiens, UniProt Q08499).
T2 construct: PDE4D: The catalytic domain of human PDE4B from S3 16-V692; His6 (N); thrombin cleavage site (N); made in house; host or cells: E. coli
T2 sequence (Q08499 380-756): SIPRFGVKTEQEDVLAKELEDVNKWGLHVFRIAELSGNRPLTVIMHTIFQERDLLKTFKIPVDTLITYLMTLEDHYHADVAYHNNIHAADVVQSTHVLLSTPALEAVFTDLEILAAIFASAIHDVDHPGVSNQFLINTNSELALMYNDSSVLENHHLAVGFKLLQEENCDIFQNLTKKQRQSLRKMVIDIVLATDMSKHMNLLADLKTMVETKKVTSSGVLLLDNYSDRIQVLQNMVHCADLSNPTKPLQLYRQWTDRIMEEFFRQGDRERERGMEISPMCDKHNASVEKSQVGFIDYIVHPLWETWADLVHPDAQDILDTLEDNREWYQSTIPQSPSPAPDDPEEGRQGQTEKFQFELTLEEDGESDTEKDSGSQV
The experiment in a line: PDE4 IC50 determination by Scintillation Proximity Assay, PDE4D. In outline:
as §1
(In general: Scintillation proximity formats need no separation of bound from free tracer.)

The target in assay [2] is T3, full-length human PDE4B2 isozyme (Homo sapiens, UniProt Q07343).
T3 construct: The full-length human PDE4B2 isozyme; His6 (N); TEV cleavage site (N); made in house; host or cells: baculovirus infected insect cells (unpurified lysate)
T3 sequence (Q07343 1-564 isoform Q07343-2): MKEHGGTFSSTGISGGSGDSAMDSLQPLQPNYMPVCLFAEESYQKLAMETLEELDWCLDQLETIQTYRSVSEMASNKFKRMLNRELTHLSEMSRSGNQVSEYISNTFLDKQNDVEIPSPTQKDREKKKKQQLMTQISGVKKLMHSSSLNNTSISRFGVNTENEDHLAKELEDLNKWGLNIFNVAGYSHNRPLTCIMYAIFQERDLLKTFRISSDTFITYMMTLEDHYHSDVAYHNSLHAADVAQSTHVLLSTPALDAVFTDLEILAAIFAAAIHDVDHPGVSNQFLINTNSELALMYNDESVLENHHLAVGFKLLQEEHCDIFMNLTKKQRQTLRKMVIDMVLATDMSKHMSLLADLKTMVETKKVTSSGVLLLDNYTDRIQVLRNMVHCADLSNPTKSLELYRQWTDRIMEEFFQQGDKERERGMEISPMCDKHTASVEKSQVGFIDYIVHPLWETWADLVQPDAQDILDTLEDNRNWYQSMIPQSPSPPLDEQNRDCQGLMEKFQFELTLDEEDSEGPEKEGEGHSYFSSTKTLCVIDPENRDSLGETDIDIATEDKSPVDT
The experiment in a line: PDE4 IC50 determination by Scintillation Proximity Assay, PDE4B2. On the procedure:
(§2) IC50s were determined by Scintillation Proximity Assay (SPA). The principle of the assay is based on the fact that cAMP, the PDE4 substrate, binds weakly to Yittrium Silicate SPA beads, whereas AMP, the product of PDE4 hydrolysis binds strongly. Thus, the extent of PDE4 hydrolysis of a sample of [^3H]cAMP can be measured because only the
(§3) [^3H]AMP produced by PDE4 hydrolysis will bind to the SPA beads and produce a scintillation signal.
(§4) PDE4 enzymes used for IC50 assays were:
PDE4B2: The full-length human PDE4B2 isozyme with an N-terminal His6 tag (SEQ ID NO: 18) and TEV cleavage site expressed in baculovirus infected insect cells. The enzyme was not purified from the cell lysates, so enzyme concentrations were not determined. Enzyme was stored in 50% glycerol at −20°.
(§5) Compounds tested (see Tables 3B, 4B and 5A for compounds and results) were 3-fold serially diluted 11 times in DMSO from a starting concentration of 4 mM or 40 μM, depending on compound potency. 1 μl of each dilution was transferred into duplicate wells of a white polystyrene 384-well assay plate (Coming #3705). In addition to the compound dilutions, each assay plate contained control wells with 1 μl of DMSO (to define 0% enzyme inhibition) or 1 μl of 200 μM roflumilast (to define 100% enzyme inhibition). Using a Beckman FX robot, 10 μl of [^3H] cAMP (Amersham TRK559) at 2 mCi/ml in assay buffer (50 mM Tris, pH 7.5; 8.3 mM MgCl; 1.7 mM EGTA; 0.01% BSA) was transferred to each assay well. Next, 10 μl of PDE4 enzyme in assay buffer was added and the plates were shaken for 30 s. at 1000 rpm to start the cAMP hydrolysis reaction. The concentrations of enzyme used were: PDE4B, 80 ng/ml; PDE4D, 4 ng/ml; PDE4B2, 2.5 μl of 50% glycerol stock/ml; PDE4D5 0.083 μl of 50% glycerol stock/ml. Assay plates were covered and incubated for 30 min. at 30°. Reactions were stopped by robotic addition of 10 μl of 5 mg/ml SPA beads (Amersham RPNQ0013) in 18 mM ZnSO4. The assay plates were covered with clear plastic film, centrifuged for 1 min. at 1000 RPM to settle the SPA beads, and counted using a Wallac TriLux scintillation counter. IC50's were calculated from the raw assay data by non-linear regression curve fitting using the Assay Explorer software package from MDL.

In assay [3] the target is T4, full-length human PDE4D5 isozyme (Homo sapiens, UniProt Q08499).
T4 construct: The full-length human PDE4D5 isozyme; His6 (N); TEV cleavage site (N); made in house; host or cells: baculovirus infected insect cells (unpurified lysate)
T4 sequence (Q08499 1-745 isoform Q08499-6): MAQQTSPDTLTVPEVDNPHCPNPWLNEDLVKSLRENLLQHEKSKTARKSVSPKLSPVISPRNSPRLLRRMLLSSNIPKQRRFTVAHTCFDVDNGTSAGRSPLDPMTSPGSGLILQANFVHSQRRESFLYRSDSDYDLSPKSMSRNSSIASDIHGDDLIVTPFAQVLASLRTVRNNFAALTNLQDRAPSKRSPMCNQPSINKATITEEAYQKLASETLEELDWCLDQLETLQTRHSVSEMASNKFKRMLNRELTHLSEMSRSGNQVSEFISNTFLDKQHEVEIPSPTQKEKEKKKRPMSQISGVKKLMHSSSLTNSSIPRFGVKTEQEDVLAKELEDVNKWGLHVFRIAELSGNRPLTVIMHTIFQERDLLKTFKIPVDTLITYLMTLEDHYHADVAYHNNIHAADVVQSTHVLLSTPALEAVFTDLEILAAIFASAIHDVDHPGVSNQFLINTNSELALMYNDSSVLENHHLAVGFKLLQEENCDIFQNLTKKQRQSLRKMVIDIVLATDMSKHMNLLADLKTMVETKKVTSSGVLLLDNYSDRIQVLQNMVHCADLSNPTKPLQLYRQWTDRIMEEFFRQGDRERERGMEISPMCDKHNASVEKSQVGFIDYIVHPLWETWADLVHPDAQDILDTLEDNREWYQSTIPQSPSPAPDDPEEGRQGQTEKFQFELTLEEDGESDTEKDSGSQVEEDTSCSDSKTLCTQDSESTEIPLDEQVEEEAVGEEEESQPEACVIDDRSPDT
The experiment in a line: PDE4 IC50 determination by Scintillation Proximity Assay, PDE4D5. The conditions noted are these: Table 1B, Formula I compounds; read-out: IC50 PDE4D5. On the procedure: as §2, §3, §4
PDE4D5: The full-length human PDE4D5 isozyme with an N-terminal His6 tag (SEQ ID NO: 18) and TEV cleavage site expressed in baculovirus infected insect cells. The enzyme was not purified from the cell lysates, so enzyme concentrations were not determined. Enzyme was stored in 50% glycerol at −20°.
as §5

The mark [4] stands for this setting: Table 1B, Formula I compounds, read-out: IC50 PDE4B.
The mark [5] stands for this setting: Table 1B, Formula I compounds, read-out: IC50 PDE4D.
Setting [6] is: Table 1B, Formula I compounds, read-out: IC50 PDE4B2.
Where [7] appears, read: second part of Table 2B (2-23 to 2-103), column 3, column is PDE4B in first part, read-out: IC 50 vs. indicated assay h TNFα.
[8] abbreviates: second part of Table 2B (2-23 to 2-103), column 5, column is PDE4D in first part, read-out: IC 50 vs. indicated assay h TNFα.
[9] abbreviates: second part of Table 2B (2-23 to 2-103), column 4, column is PDE4B2 in first part, read-out: IC 50 vs. indicated assay h TNFα.

T1 sequence (Q07343 with tags, fused parts or gaps): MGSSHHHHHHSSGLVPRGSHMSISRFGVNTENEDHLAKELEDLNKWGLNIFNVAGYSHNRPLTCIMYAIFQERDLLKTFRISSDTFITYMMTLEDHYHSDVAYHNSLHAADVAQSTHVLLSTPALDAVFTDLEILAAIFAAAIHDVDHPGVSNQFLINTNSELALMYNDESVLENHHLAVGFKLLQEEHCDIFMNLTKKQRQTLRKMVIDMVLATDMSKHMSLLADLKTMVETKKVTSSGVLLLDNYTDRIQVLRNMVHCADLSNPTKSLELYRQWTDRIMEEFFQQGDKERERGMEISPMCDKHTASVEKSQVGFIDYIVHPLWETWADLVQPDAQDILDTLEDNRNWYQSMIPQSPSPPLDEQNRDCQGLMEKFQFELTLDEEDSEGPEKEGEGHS

`CC(C)CNc1sc(C(=O)c2cc(-c3ccc(Cl)c(Cl)c3)no2)c(N)c1C#N` [Compound 1-226, 4-Amino-5-[3-(3,4-dichloro-phenyl)-isoxazole-5-carbonyl]-2-isobutylamino-thiophene-3-carbonitrile]: the IC50 (in assay [1] (setting [4]); at PDE4D (setting [5]); in assay [2] (setting [6]); in assay [3]) was greater than 10 µM in each case.
As to `N#Cc1c(Nc2ccc(Cl)cc2)sc(C(=O)c2ccc(Cl)cc2Cl)c1N` [Compound 1-18, 4-Amino-2-(4-chloro-phenylamino)-5-(2,4-dichloro-benzoyl)-thiophene-3-carbonitrile], the IC50 (in assay [1] (setting [4]); at PDE4D (setting [5]); in assay [2] (setting [6]); in assay [3]) was less than 10 µM each time.
Turning to `N#Cc1c(NC2CCCC2)sc(C(=O)c2ccc(-c3ccccn3)s2)c1N` [Compound 1-78, 4-Amino-2-cyclopentylamino-5-(5-pyridin-2-yl-thiophene-2-carbonyl)-thiophene-3-carbonitrile], the IC50 (in assay [1] (setting [4]); on PDE4D (setting [5]); in assay [2] (setting [6]); in assay [3]) was less than 10 µM throughout.
`Cc1c(C(=O)c2sc(NCC3CCCO3)c(C#N)c2N)cnn1-c1ccccc1` (stereo not shown) [Compound 1-57, 4-Amino-5-(5-methyl-1-phenyl-1H-pyrazole-4-carbonyl)-2-[(tetrahydro-furan-2-ylmethyl)-amino]-thiophene-3-carbonitrile]: the IC50 in assay [1] (setting [4]) is greater than 10 µM; at PDE4D (setting [5]), less than 10 µM; in assay [2] (setting [6]) it was greater than 10 µM; in assay [3], greater than 10 µM.
Turning to `N#Cc1c(NCC2CC2)sc(C(=O)c2cc(-c3ccccc3)no2)c1N` [Compound 1-206, 4-Amino-2-(cyclopropylmethyl-amino)-5-(3-phenyl-isoxazole-5-carbonyl)-thiophene-3-carbonitrile], the IC50 (in assay [1] (setting [4]); at PDE4D (setting [5]); in assay [2] (setting [6]); in assay [3]) was greater than 10 µM in each case.
`N#Cc1c(NC2CCCC2)sc(C(=O)c2nc3ccccc3s2)c1N` [Compound 1-215, 4-Amino-5-(benzothiazole-2-carbonyl)-2-cyclopentylamino-thiophene-3-carbonitrile]: the IC50 (in assay [1] (setting [4]); on PDE4D (setting [5]); in assay [2] (setting [6]); in assay [3]) was less than 10 µM throughout.
Regarding `Nc1nc(Nc2c(Cl)cccc2Cl)sc1C(=O)c1ccccc1` [Compound 2-30, [4-Amino-2-(2,6-dichloro-phenylamino)-thiazol-5-yl]-phenyl-methanone], the IC50 (in assay [1] (setting [7]); at PDE4D (setting [8]); in assay [2] (setting [9])) was less than 10 µM each time.
With `N#Cc1c(NC2CCCC2)sc(C(=O)c2cc(C(=O)NC3CC3)no2)c1N` [Compound 1-190, 5-(3-Amino-4-cyano-5-cyclopentylamino-thiophene-2-carbonyl)-isoxazole-3-carboxylic acid cyclopropylamide], the IC50 (in assay [1] (setting [4]); at PDE4D (setting [5]); in assay [3]) was less than 10 µM in each case.
Regarding `N#Cc1c(Nc2ccc(Oc3ccccc3)cc2)sc(C(=O)C2CCCC2)c1N` [Compound 1-195, 4-Amino-5-cyclopentanecarbonyl-2-(4-phenoxy-phenylamino)-thiophene-3-carbonitrile], the IC50 in assay [1] (setting [4]) and in assay [3] was less than 10 µM throughout.
In the case of `Nc1nc(Nc2ccc(Oc3ccccc3)cc2)sc1C(=O)c1ccccc1` [Compound 2-67, [4-Amino-2-(4-phenoxy-phenylamino)-thiazol-5-yl]-phenyl-methanone], the IC50 in assay [1] (setting [7]) and in assay [2] (setting [9]) was less than 10 µM each time.
Turning to `COc1ccc(Nc2sc(C(=O)c3cc(-c4ccc(Cl)cc4Cl)no3)c(N)c2C#N)cc1` [Compound 1-164, 4-Amino-5-[3-(2,4-dichloro-phenyl)-isoxazole-5-carbonyl]-2-(4-methoxy-phenylamino)-thiophene-3-carbonitrile], the IC50 is less than 10 µM in assay [1] (setting [4]), less than 10 µM at PDE4D (setting [5]) and greater than 10 µM in assay [3].
Regarding `CC(C)NC(=O)c1cc(C(=O)c2sc(NC3CCCC3)c(C#N)c2N)on1` [Compound 1-189, 5-(3-Amino-4-cyano-5-cyclopentylamino-thiophene-2-carbonyl)-isoxazole-3-carboxylic acid isopropylamide], the IC50 (in assay [1] (setting [4]); at PDE4D (setting [5]); in assay [3]) was less than 10 µM in each case.
For the compound `Nc1c(C(=O)c2cc(-c3ccccc3)no2)sc(NC2CCCC2)c1C(=O)O` [Compound 1-237, 4-Amino-2-cyclopentylamino-5-(3-phenyl-isoxazole-5-carbonyl)-thiophene-3-carboxylic acid], the IC50 in assay [1] (setting [4]), in assay [2] (setting [6]) and in assay [3] was less than 10 µM throughout.
As to `Cc1c(Nc2ccc(Oc3ccccc3)cc2)sc(C(=O)c2ccccc2)c1N` [Compound 1-239, [3-Amino-4-methyl-5-(4-phenoxy-phenylamino)-thiophen-2-yl]-phenyl-methanone], the IC50 in assay [1] (setting [4]) was less than 10 µM; in assay [2] (setting [6]) it was greater than 10 µM; in assay [3] it was greater than 10 µM.
For the compound `CC(C)C(C)Nc1sc(C(=O)c2cc(-c3ccc(Cl)c(Cl)c3)no2)c(N)c1C#N` (stereo not shown) [Compound 1-246, 4-Amino-5-[3-(3,4-dichloro-phenyl)-isoxazole-5-carbonyl]-2-(1,2-dimethyl-propylamino)-thiophene-3-carbonitrile], the results for the IC50 (in assay [1] (setting [4]); at PDE4D (setting [5]); in assay [3]) were less than 10 µM, greater than 10 µM and greater than 10 µM, respectively.
Regarding `Nc1nc(Nc2ccc(Cl)cc2)sc1C(=O)C1CCCC1` [Compound 2-92, [4-Amino-2-(4-chloro-phenylamino)-thiazol-5-yl]-cyclopentyl-methanone], the IC50 (in assay [1] (setting [7]); at PDE4D (setting [8]); in assay [2] (setting [9])) was less than 10 µM throughout.
In the case of `Cc1c(Nc2ccccc2)sc(C(=O)c2ccc(Cl)cc2)c1N` [Compound 1-238, (3-Amino-4-methyl-5-phenylamino-thiophen-2-yl)-(4-chloro-phenyl)-methanone], the IC50 in assay [1] (setting [4]), in assay [2] (setting [6]) and in assay [3] was less than 10 µM in each case.
On to `N#Cc1c(Nc2ccc(C(=O)NC3CCOC3=O)cc2)sc(C(=O)c2cc(-c3ccccc3)no2)c1N` (stereo not shown) [Compound 1-142, 4-[4-Amino-3-cyano-5-(3-phenyl-isoxazole-5-carbonyl)-thiophen-2-ylamino]-N-(2-oxo-tetrahydro-furan-3-yl)-benzamide], for which the IC50 (in assay [1] (setting [4]); at PDE4D (setting [5]); in assay [2] (setting [6])) was less than 10 µM throughout.
Regarding `CCc1c(Nc2ccc(Oc3ccccc3)cc2)sc(C(=O)c2ccccc2)c1N` [Compound 1-243, [3-Amino-5-ethyl-5-(4-phenoxy-phenylamino)-thiophen-2-yl]-phenyl-methanone], the figures for the IC50 in assay [1] (setting [4]), in assay [2] (setting [6]) and in assay [3] were less than 10 µM, less than 10 µM and greater than 10 µM, respectively.
